From paper PMC9156754, “Functional and phylogenetic analysis of TetX variants to design a new classification system” (Communications Biology, 2022)
In brackets after ≈: the same amount, converted by molar mass. Where two headings read alike, the source gives them in different places.

Assays:
E. coli 25922 = system: T1, E. coli 25922; assay: microbe, parasite or virus in culture; design: broth microdilution MIC, growth of E. coli, CLSI guidelines; details: Escherichia coli
T1 construct: ATCC 25922
Protocol: (§1) The MICs of three antibiotics (tetracycline, minocycline, and tigecycline) for strains were determined using the microbroth dilution method and the results were interpreted according to the CLSI guidelines. For tigecycline, the breakpoint was interpreted according to the FDA criteria (susceptible, ≤2 mg/L; intermediate, 4 mg/L; resistant, ≥8 mg/L)[9]. E. coli strain ATCC 25922 was used as a quality control. The tet(X2) (WP_063856436.1), tet(X3) (WP024160783), and tet(X4) (WP094309310) genes were amplified from dairy cows’ clinical isolates[25] by PCR with primers listed in Supplementary Table 1. Then these genes were constructed into pBAD-18Kan vector and IPTG-inducible pET28b vector, respectively. The recombinant plasmids pBAD-18-tet(X2), pBAD-18-tet(X3) and pBAD-18-tet(X4) were transformed into E. coli BW25113 and followed by antimicrobial susceptibility tests. In addition, the recombinant plasmids pET28-6×His-tet(X2), pET28-6×His-tet(X3) and pET28-6×His-tet(X4) were transformed into E. coli strain BL21(DE3) for protein purification. Point mutations were introduced into the tet(X2) gene, tet(X3) gene and tet(X4) by using the QuickChange (Stratagene) commercial kit, following the manufacturer’s instructions, and confirmed by sequencing. Primers used in mutagenesis are also listed in Supplementary Table 1.

[1] = system: T2, Escherichia coli Vector control; assay: microbe, parasite or virus in culture; design: broth microdilution MIC, growth of E. coli, CLSI guidelines; details: empty pBAD18 vector
T2 construct: BW25113 empty pBAD18-Kan vector
Protocol: as §1

[2] = system: CN(C)c1cc(NC(=O)CNC(C)(C)C)c(O)c2c1C[C@H]1C[C@H]3[C@H](N(C)C)C(=O)C(C(N)=O)=C(O)[C@@]3(O)C(=O)C1=C2O; assay: purified protein; assay type: biochemical, Escherichia coli; details: 0.1 M TAPS pH 8.5, 5 mM MgCl2, 500 µM NADPH, ambient temperature

Molecule: CN(C)c1cc(NC(=O)CNC(C)(C)C)c(O)c2c1C[C@H]1C[C@H]3[C@H](N(C)C)C(=O)C(C(N)=O)=C(O)[C@@]3(O)C(=O)C1=C2O [tigecycline]
- MIC (E. coli 25922; read-out: MIC (mg/L) / TGC): 0.25 mg/L (≈ 0.427 µM)
- MIC ([1]; read-out: MIC (mg/L) / TGC): 0.5 mg/L (≈ 0.854 µM)

Molecule: Tet(X4) (Escherichia coli)
- Km [2]: 1.73 ± 0.09 µM
- kcat [2]: 2 ± 0.02 s⁻¹
- kcat/Km [2]: 1.16e+06 M⁻¹ s⁻¹

Molecule: CN(C)c1ccc(O)c2c1C[C@H]1C[C@H]3[C@H](N(C)C)C(O)=C(C(N)=O)C(=O)[C@@]3(O)C(O)=C1C2=O [minocycline]
- MIC (E. coli 25922; read-out: MIC (mg/L) / MIN): 0.25 mg/L (≈ 0.546 µM)
- MIC ([1]; read-out: MIC (mg/L) / MIN): 1 mg/L (≈ 2.19 µM)

Molecule: CN(C)[C@@H]1C(O)=C(C(N)=O)C(=O)[C@@]2(O)C(O)=C3C(=O)c4c(O)cccc4[C@@](C)(O)[C@H]3C[C@@H]12 [tetracycline]
- MIC (E. coli 25922; read-out: MIC (mg/L) / TET^a): 1 mg/L (≈ 2.25 µM)
- MIC ([1]; read-out: MIC (mg/L) / TET^a): 2 mg/L (≈ 4.5 µM)
